Patent US10689622B2, “Culture medium for proliferating stem cell, which contains sulfated compound” (AJINOMOTO CO., INC., priority 2012, dated 2020)

Assays:
bFGF [1] = target: T1, bFGF (Homo sapiens, UniProt P09038); experiment: Evaluation of bFGF stabilization in Lonza serum-free medium (ELISA); type: biochemical
T1 construct: purchased Lonza (via TAKARA BIO INC.) Ser. No. 00/190,632
Method: (§1) A test compound was dissolved in phosphate buffered saline, and diluted 10-fold with a serum-free medium to adjust to the concentrations shown in Table 4 (test sample). The test sample was left standing in a tightly sealed Falcon tube at 37° C. for 7 days (Tables 5 to 8-2) or 3 days (Table 8-3), and the bFGF concentration was quantified by ELISA measurement. A phosphate buffered saline without a test compound was diluted 10-fold with a serum-free medium, and left standing at 37° C. or 4° C. for 7 days or 3 days, and used as a control.
(§2) A commercially available measurement kit (human bFGF ELISA kit, ELH-bFGF-001, Ray Biotech) was used for quantification of bFGF in the medium. The measurement procedures followed the protocol attached to the kit. The bFGF concentration of the serum-free medium was calculated from the analytical curve (conversion formula) drawn from the absorbance of an analytical curve standard solution. The evaluation criteria of Tables 5-8 are as follows:
as §1, with “Table 13” for “Table 4”, “7 days,” for “7 days (Tables 5 to 8-2) or 3 days (Table 8-3),”, “7” for “7 days or 3”
as §2, with “Table 13” for “Tables 5-8”, “follows: […]” for “follows:”

bFGF [2] = target: T1, bFGF; experiment: Evaluation of bFGF stabilization in Essential 8 medium (ELISA); type: biochemical; conditions: 37° C. for 7 days
Method: as §2
(§3) A test compound was dissolved in phosphate buffered saline, and diluted 10-fold with a serum-free medium to adjust the concentration shown in Table 4 (test sample). The test sample was left standing in a tightly sealed Falcon tube at 37° C. for 7 days, and the bFGF concentration was quantified by ELISA measurement. A phosphate buffered saline without a test compound was diluted 10-fold with Essential 8 medium or ReproFF2 medium, and left standing at 37° C. or 4° C. for 7 days, and used as a control.
as §2, with “Table 13” for “Tables 5-8”
as §3, with “Table 12” for “Table 4”

[3] = test system: Human bone marrow-derived mesenchymal stem cells; experiment: Mesenchymal stem cell proliferation system (cell number by DNA quantification)
[4] = Lonza serum-free medium, 37° C. for 7 days, test compound 25 ng/ml
[5] = Lonza serum-free medium, 37° C. for 7 days, test compound 250 ng/ml
[6] = Lonza serum-free medium, 37° C. for 7 days, test compound 25 μg/ml
[7] = Lonza serum-free medium, 37° C. for 7 days, test compound 250 μg/ml
[8] = Lonza serum-free medium, 37° C. for 7 days, test compound 250 pg/ml

T1 sequence (P09038 143-288): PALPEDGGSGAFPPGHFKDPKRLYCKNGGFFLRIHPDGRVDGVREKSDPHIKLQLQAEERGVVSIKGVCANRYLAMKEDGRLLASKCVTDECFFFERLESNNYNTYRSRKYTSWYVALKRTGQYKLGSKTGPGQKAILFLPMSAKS

| Compound | bFGF concentration relative to that of 4° C. control (ELISA) (bFGF [1]; [4]) | bFGF concentration relative to that of 4° C. control (ELISA) (bFGF [1]; [5]) | bFGF concentration relative to that of 4° C. control (ELISA) (bFGF [1]; [6]) | bFGF concentration relative to that of 4° C. control (ELISA) (bFGF [1]; [7]) | also measured |
| --- | --- | --- | --- | --- | --- |
| tartrate-SO3Na | x (bFGF concentration was less than 10% relative to that of 4 °C control) | − (bFGF concentration was not less than 10% and less than 30% relative to that of 4 °C control) | x (bFGF concentration was less than 10% relative to that of 4 °C control) | x (bFGF concentration was less than 10% relative to that of 4 °C control) | concentration at which a decrease in the protein amount of FGF is not suppressed (bFGF [1]; as shown in the Examples (methods of Examples I-1 and II-1)): not more than 250 μg/ml; effectiveness ELISA (bFGF [1]; effectiveness in ELISA evaluation of mesenchymal stem cells (medium), 4° C. control ratio): ++ (++ 50%<); concentration showing a suppressive effect on a decrease in the bFGF concentration of the medium (bFGF [2]): not less than 250 μg/ml; bFGF concentration relative to that of 4° C. control (ELISA) (bFGF [2]; test compound 250 pg/ml): x (bFGF concentration was less than 10% relative to that of 4 °C control); bFGF concentration relative to that of 4° C. control (ELISA) (bFGF [2]; test compound 25 ng/ml): x (bFGF concentration was less than 10% relative to that of 4 °C control); bFGF concentration relative to that of 4° C. control (ELISA) (bFGF [2]; test compound 250 ng/ml): x (bFGF concentration was less than 10% relative to that of 4 °C control); bFGF concentration relative to that of 4° C. control (ELISA) (bFGF [2]; test compound 25 μg/ml): x (bFGF concentration was less than 10% relative to that of 4 °C control); bFGF concentration relative to that of 4° C. control (ELISA) (bFGF [2]; test compound 250 μg/ml): − (bFGF concentration was not less than 10% and less than 30% relative to that of 4 °C control); effectiveness cells ([3]; growth of mesenchymal stem cell, control ratio): ◯ (◯ not leas than 100%); concentration showing promoted cell proliferation as compared to the control ([3]; mesenchymal stem cells, Lonza serum-free medium): 2.5 ng/mL |
| N[C@@H](CO)C(=O)O [serine, reference compound] | x (bFGF concentration was less than 10% relative to that of 4 °C control) | x (bFGF concentration was less than 10% relative to that of 4 °C control) | x (bFGF concentration was less than 10% relative to that of 4 °C control) | x (bFGF concentration was less than 10% relative to that of 4 °C control) | bFGF concentration relative to that of 4° C. control (ELISA) (bFGF [1]; [8]): x (bFGF concentration was less than 10% relative to that of 4 °C control) |
| OC[C@@H](O)[C@@H](O[C@H]1O[C@H](CO)[C@@H](O)[C@H](O)[C@H]1O)[C@H](O)[C@@H](O)CO [maltitol, reference compound] | x (bFGF concentration was less than 10% relative to that of 4 °C control) | x (bFGF concentration was less than 10% relative to that of 4 °C control) | x (bFGF concentration was less than 10% relative to that of 4 °C control) | x (bFGF concentration was less than 10% relative to that of 4 °C control) |  |
| OC[C@@H](O)[C@H](O)[C@@H](O)CO [xylitol, reference compound] | x (bFGF concentration was less than 10% relative to that of 4 °C control) | x (bFGF concentration was less than 10% relative to that of 4 °C control) | x (bFGF concentration was less than 10% relative to that of 4 °C control) | x (bFGF concentration was less than 10% relative to that of 4 °C control) |  |
| OC[C@H]1O[C@@](CO)(O[C@H]2O[C@H](CO)[C@@H](O)[C@H](O)[C@H]2O)[C@@H](O)[C@@H]1O [sucrose, reference compound] | x (bFGF concentration was less than 10% relative to that of 4 °C control) | x (bFGF concentration was less than 10% relative to that of 4 °C control) | x (bFGF concentration was less than 10% relative to that of 4 °C control) |  |  |
| OC[C@H]1O[C@H](O[C@H]2[C@H](O)[C@@H](O)[C@@H](O[C@H]3[C@H](O)[C@@H](O)C(O)O[C@@H]3CO)O[C@@H]2CO)[C@H](O)[C@@H](O)[C@@H]1O (stereo partly drawn) [maltotriose, reference compound] | x (bFGF concentration was less than 10% relative to that of 4 °C control) | x (bFGF concentration was less than 10% relative to that of 4 °C control) | x (bFGF concentration was less than 10% relative to that of 4 °C control) | x (bFGF concentration was less than 10% relative to that of 4 °C control) | bFGF concentration relative to that of 4° C. control (ELISA) (bFGF [2]; test compound 250 pg/ml): x (bFGF concentration was less than 10% relative to that of 4 °C control); bFGF concentration relative to that of 4° C. control (ELISA) (bFGF [2]; test compound 25 ng/ml): x (bFGF concentration was less than 10% relative to that of 4 °C control); bFGF concentration relative to that of 4° C. control (ELISA) (bFGF [2]; test compound 250 ng/ml): x (bFGF concentration was less than 10% relative to that of 4 °C control); bFGF concentration relative to that of 4° C. control (ELISA) (bFGF [2]; test compound 25 μg/ml): x (bFGF concentration was less than 10% relative to that of 4 °C control); bFGF concentration relative to that of 4° C. control (ELISA) (bFGF [2]; test compound 250 μg/ml): x (bFGF concentration was less than 10% relative to that of 4 °C control) |
| NC(COS(=O)(=O)[O-])C(=O)O.[Na+] (stereo not drawn) [serine SO3Na] | x (bFGF concentration was less than 10% relative to that of 4 °C control) | x (bFGF concentration was less than 10% relative to that of 4 °C control) | − (bFGF concentration was not less than 10% and less than 30% relative to that of 4 °C control) | +++ (bFGF concentration was not less than 70% relative to that of 4 °C control) | concentration showing a suppressive effect on a decrease in the bFGF concentration of the medium (bFGF [1]; Lonza serum-free medium, 37° C. for 7 days): not less than 25 μg/ml; bFGF concentration relative to that of 4° C. control (ELISA) (bFGF [1]; [8]): x (bFGF concentration was less than 10% relative to that of 4 °C control); number of cells relative to control ([3]; test compound 25 pg/ml, mesenchymal stem cells): — (100-50); number of cells relative to control ([3]; test compound 250 pg/ml, mesenchymal stem cells): — (100-50); number of cells relative to control ([3]; test compound 25 ng/ml, mesenchymal stem cells): — (100-50); number of cells relative to control ([3]; test compound 250 ng/ml, mesenchymal stem cells): — (100-50) |
| OC[C@@H](O)[C@@H](O)[C@H](O)[C@H](O)CO [mannitol, reference compound] | x (bFGF concentration was less than 10% relative to that of 4 °C control) | x (bFGF concentration was less than 10% relative to that of 4 °C control) | x (bFGF concentration was less than 10% relative to that of 4 °C control) | x (bFGF concentration was less than 10% relative to that of 4 °C control) |  |
| OC[C@H]1O[C@@H]2O[C@H]3[C@H](O)[C@@H](O)[C@@H](O[C@H]4[C@H](O)[C@@H](O)[C@@H](O[C@H]5[C@H](O)[C@@H](O)[C@@H](O[C@H]6[C@H](O)[C@@H](O)[C@@H](O[C@H]7[C@H](O)[C@@H](O)[C@@H](O[C@H]1[C@H](O)[C@H]2O)O[C@@H]7CO)O[C@@H]6CO)O[C@@H]5CO)O[C@@H]4CO)O[C@@H]3CO [α-CD, α-cyclodextrin, reference compound] |  |  |  | x (bFGF concentration was less than 10% relative to that of 4 °C control) |  |
